These results are taken from US20210401786A1, “COMPOSITION FOR TREATING BURN WOUNDS” (priority 2020, published 2021).

Several values for one entry are separate records, joined by “and”; a condition that tells them apart may be missing. Equal values may be shown once.

Holding throughout (type): in vivo, Guangxi Bama mini-pigs
One assay has as its system P63. Briefly: Immunohistochemistry of healed epidermis, IOD of P63. The following applies: 4 weeks after treatment, Image-Pro Plus 6.0. How it is done:
(§1) An immunohistochemistry analysis was performed to identify the localization and expression of specific molecular markers of keratinocytes in the healed epidermis.
(§2) It can be seen from FIG. 6 that the nuclear transcription factor P63 was mainly expressed in undifferentiated proliferating keratinocytes located in the basal layer. CK 10 was mainly expressed in mature differentiating keratinocytes. The expression of P63 and CK10 protein indicate the proliferation and differentiation of keratinocytes during epithelialization and repair of wounds. The higher the expression of P63 and CK10 protein, the faster the cells proliferate and differentiate. In the late stage of wound repair, fibroblasts secrete more collagen fibers, and a large number of collagen fibers increase and are densely arranged. Masson staining is used to mark the subcutaneous collagen fibers as green. The structure of each layer of the epidermis treated with the present invention is clear. The proliferative layer and the differentiated layer can be clearly identified by immunohistochemical staining.
(§3) Integrated optical density (IOD) values analysis of immunohistological images of P63 and CK10 are performed by Image-Pro Plus 6.0, as shown in Table 3 and FIGS. 8 to 9. […]

In assay [1] the test system is porcine full-thickness burn wounds. Description: Porcine full-thickness burn wound healing experiment. The following applies: for Wound healing time (days, X +/− S): 9 wounds per group. How it is done:
(2) Experimental animals: Three female Guangxi Bama mini-pigs are 19-21 kilograms (provided by Tianjin Bainong Laboratory Animal Breeding Technology Co., Ltd., Tianjin, China). Animals were housed in isolated steel cages (80×100×110 cm^3) at 25° C. under natural lighting in the Experimental Animal Center, after thoroughly disinfecting the breeding room and the cages for animals with disinfectants and ultraviolet lamps. Non-experimental personnel are strictly prohibited from entering the breeding room during the experiment Animals were fed with standard pig chow twice daily, 150 grains at a time, and had access to water ad libitum (water is of the clean standard for tap water). The breeding room and cage are disinfected regularly on a weekly basis, and the feed tank and the water sink are cleaned before each feeding.
(3) Creation of porcine full-thickness burn wound models: The miniature pig was raised conventionally, fasted for 12 h, laid on one side, and injected with sumianxin injection into the hip muscle. Once anesthetized, the miniature pig was transferred to an operating table and a ventilation tube was placed in the mouth. After disinfection of the back of the ear, an indwelling needle of the auricle vein was placed for adequate analgesia and sedation. The surgical area on the back was prepared, disinfected with iodophor, on which a sterile sheet was spread, and an expected site of a burn was marked. The aluminum block mold (the net weight of the aluminum block mold is 265 g, and the load is 1 kg) was heated to 96° C. for 10 minutes, and was in close contact with the skin for 45 seconds. Each pig had 9 wounds. The operation on the back of the 3 mini pigs is consistent. After the operation, the wounds were disinfected with iodophor, on which cotton pads dressing and elastic sleeves were applied. Antibiotics were injected intravenously to prevent infection, and 2 ml of the awakening agent Lu Xingning was injected intravenously. The pigs were then transferred to the cages. One hour after waking up, the pigs were fed and given oral rehydration saline. Activities and signs of the pigs were closely observed. After the burn injury, local debridement and different treatments were performed on the wounds. Three weeks after injury, the wounds were covered by necrotic eschar, without exudate and dissolution reaction. Excisional debridement down to the fat layer was performed. Wounds were then dressed and covered with elasticated jackets to prevent animal-initiated damage. Preemptive antibiotics and analeptic Lu Xingning were administered i.v., then the animals were transferred to individual cages, and monitored closely for adverse outcomes during their post-procedure recovery. Post-surgical pain was managed with oral analgesia.
In order to verify the therapeutic effect of the composition of this application on burn wounds, the composition of Example 3 of this application, recombinant human epidermal growth factor rhEGF (5000 IU/mL, 15 mL, Shenzhen Watsin Genetech Ltd.) and physiological saline were used respectively to treat the full-thickness burn wounds of the pigs.
The wounds were photographed and measured at day 7, 14, 21, 28 after different treatments. It can be seen from FIG. 2 that the new granulation tissue of the wound is fresh and rosy without exudation. […]

Another assay concerns CK10. Briefly: Immunohistochemistry of healed epidermis, IOD of CK10. The following applies: 4 weeks after treatment, Image-Pro Plus 6.0. How it is done: as §1, §2, §3
The test system of assay [2] is healed epidermis (proliferative layer and differentiated layer). Briefly: Histologic epidermal thickness of healed porcine burn wounds. On the procedure:
as §1
The epidermis partitions into two layers: a proliferative layer and a differentiated layer.

As for “recombinant human epidermal growth factor [rhEGF]”, the “IOD (P63) (X +/− S)” value in the assay on P63 is recorded as 21929.27. In addition, the “wound healing, gross appearance” value in assay [1] (FIG. 2, versus saline group) is recorded as “heal faster than those of the saline group”. In addition, in assay [1] (FIG. 3, compared to the saline group, p<0.05), the residual wound area entry was “obviously reduced wound area at day 28”. For the same substance, in assay [1] (FIG. 4, compared to the saline group, p<0.05), the wound healing rate entry is “obviously improved the wound healing rate at day 7, 14, 21”. For the same substance, the “Wound healing time (days, X +/− S)” value in assay [1] (Test Example 1, time to complete epithelialization) was 23.56±4.85 days and 23.56 ± 4.85^2 days. The “Wound healing time (days, X +/− S)” value in assay [1] (Test Example 3) is 23.56 ± 4.85^2 days. Moreover, the “IOD (CK10) (X +/− S)” value with CK10 amounted to 395254.15. In assay [2], the “Thickness of differentiated layer (X +/− S)” value came out at 246.20 μm and the “Thickness of proliferative layer (X +/− S)” value is given as 35.92 μm.
